Test results from ChEMBL document CHEMBL1201862, “PubChem BioAssay data set” (2004).
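Compound exposure: 48 hours, 5 concentrations, 96-well plates. The concentration for 50% growth inhibition is given as GI50.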 Active and inactive are the calls of the source. No stated cut-off is given here; in the data, active = GI50 up to about 1.1 µM and inactive = higher.

Columns and labels:
Assay in all cases: inhibition of tumour cell growth, NCI panel, 48 h
A549 = tested on: A549
SF-539 = tested on: SF-539
UACC-257 = tested on: UACC-257
HOP-92 = tested on: HOP-92
OVCAR-8 = tested on: OVCAR-8
UACC-62 = tested on: UACC-62
HCC 2998 = tested on: HCC 2998
OVCAR-3 = tested on: OVCAR-3
SNB-75 = tested on: SNB-75
HL-60 = tested on: HL-60
SK-OV-3 = tested on: SK-OV-3
TK-10 = tested on: TK-10
SF-295 = tested on: SF-295
MDA-MB-231 = tested on: MDA-MB-231
CCRF-CEM = tested on: CCRF-CEM
DU-145 = tested on: DU-145
K562 = tested on: K562
SK-MEL-5 = tested on: SK-MEL-5
SK-MEL-2 = tested on: SK-MEL-2
ACHN = tested on: ACHN

Row | SMILES | GI50 (A549) | GI50 (SF-539) | GI50 (UACC-257) | GI50 (HOP-92) | GI50 (OVCAR-8) | GI50 (UACC-62) | GI50 (HCC 2998) | GI50 (OVCAR-3) | GI50 (SNB-75) | GI50 (HL-60) | GI50 (SK-OV-3) | GI50 (TK-10) | GI50 (SF-295) | GI50 (MDA-MB-231) | GI50 (CCRF-CEM) | GI50 (DU-145) | GI50 (K562) | GI50 (SK-MEL-5) | GI50 (SK-MEL-2) | GI50 (ACHN)
1 | CC1=CCC(C(C)(C)NC(=O)c2ccccc2)C/C1=N/O (stereo not drawn) | > 100 µM (inactive) | > 100 µM (inactive) | > 100 µM (inactive) | 43.3 µM (inactive) | > 100 µM (inactive) | > 100 µM (inactive) | > 100 µM (inactive) | > 100 µM (inactive) | > 100 µM (inactive) | > 100 µM (inactive) | > 100 µM (inactive) | > 100 µM (inactive) | > 100 µM (inactive) | > 100 µM (inactive) | > 100 µM (inactive) | > 100 µM (inactive) | > 100 µM (inactive) | > 100 µM (inactive) |  | 
2 | Cc1nc2c(O)cc3c4c(n(Cc5ccccc5)c3c2nc1C)C(=O)CCC4 | 50.5 µM (inactive) | 17.5 µM (inactive) | > 100 µM (inactive) | 15.4 µM (inactive) | 12.2 µM (inactive) | 24.5 µM (inactive) | > 100 µM (inactive) | 28.2 µM (inactive) |  | > 100 µM (inactive) | 14.6 µM (inactive) | 34 µM (inactive) | 34 µM (inactive) | > 100 µM (inactive) | > 100 µM (inactive) | 7.13 µM (inactive) | 93.5 µM (inactive) | 25.5 µM (inactive) | 10.1 µM (inactive) | 25.2 µM (inactive)
3 | Cc1cc(C)n(C(=O)CSc2nnc(SCC(=O)n3nc(C)cc3C)s2)n1 | > 100 µM (inactive) | > 100 µM (inactive) | > 100 µM (inactive) | > 100 µM (inactive) | > 100 µM (inactive) | > 100 µM (inactive) | > 100 µM (inactive) | 91.8 µM (inactive) | 40 µM (inactive) | > 100 µM (inactive) | > 100 µM (inactive) | > 100 µM (inactive) | > 100 µM (inactive) | > 100 µM (inactive) | > 100 µM (inactive) | > 100 µM (inactive) | > 100 µM (inactive) | > 100 µM (inactive) |  | > 100 µM (inactive)
4 | C=CCOc1ccccc1C1(O)c2ccccc2C2=NCCCN21 (stereo not drawn) | > 100 µM (inactive) | 17.6 µM (inactive) | 30.9 µM (inactive) | 56.9 µM (inactive) | 19.5 µM (inactive) | 40.9 µM (inactive) | 15.7 µM (inactive) | 22.2 µM (inactive) | 15.1 µM (inactive) | 26.8 µM (inactive) | > 100 µM (inactive) | 90.8 µM (inactive) | 31 µM (inactive) | > 100 µM (inactive) | 33 µM (inactive) | 57.9 µM (inactive) | 45.3 µM (inactive) | 25.6 µM (inactive) |  | 37.8 µM (inactive)
5 | C=CCC1(c2ccc(OC)cc2)C=CC(=O)CC1 (stereo not drawn) | > 100 µM (inactive) | > 100 µM (inactive) | > 100 µM (inactive) | 44.9 µM (inactive) | > 100 µM (inactive) | 68.7 µM (inactive) | > 100 µM (inactive) | > 100 µM (inactive) | 19.4 µM (inactive) | 38.9 µM (inactive) | > 100 µM (inactive) | > 100 µM (inactive) | > 100 µM (inactive) | 92.7 µM (inactive) | 24.3 µM (inactive) | > 100 µM (inactive) | 40.2 µM (inactive) | > 100 µM (inactive) |  | > 100 µM (inactive)
6 | CSc1ncnc2c1cnn2Cc1cn(COCC(O)CO)nn1 (stereo not drawn) | > 100 µM (inactive) | > 100 µM (inactive) | > 100 µM (inactive) | > 100 µM (inactive) | > 100 µM (inactive) | > 100 µM (inactive) | > 100 µM (inactive) | > 100 µM (inactive) |  | > 100 µM (inactive) | > 100 µM (inactive) | > 100 µM (inactive) | > 100 µM (inactive) | > 100 µM (inactive) | > 100 µM (inactive) | > 100 µM (inactive) |  | > 100 µM (inactive) | > 100 µM (inactive) | > 100 µM (inactive)
7 | Oc1cc(-c2ccccc2)nc2c(S)cccc12 | > 100 µM (inactive) | > 100 µM (inactive) | > 100 µM (inactive) | 63.2 µM (inactive) | > 100 µM (inactive) | > 100 µM (inactive) | > 100 µM (inactive) | > 100 µM (inactive) | 23.5 µM (inactive) | 97.9 µM (inactive) | > 100 µM (inactive) | > 100 µM (inactive) | > 100 µM (inactive) | 62.5 µM (inactive) | > 100 µM (inactive) | > 100 µM (inactive) | 81.3 µM (inactive) | 37.1 µM (inactive) |  | 95.3 µM (inactive)
8 | N#CC(C#N)=C1C(=Cc2ccc(OCCCCCCCCCCSSCCCCCCCCCCOc3ccc(C=C4C(=C(C#N)C#N)c5ccccc5C4=C(C#N)C#N)cc3)cc2)C(=C(C#N)C#N)c2ccccc21 | 15.5 µM (inactive) | 16.1 µM (inactive) | 39.5 µM (inactive) | 17.7 µM (inactive) | 31 µM (inactive) |  | 14.7 µM (inactive) | 29.7 µM (inactive) | 25.7 µM (inactive) | 0.0465 µM (active) |  | 47.4 µM (inactive) | 20.1 µM (inactive) | 28.6 µM (inactive) |  | 22 µM (inactive) | 23.7 µM (inactive) | 22.1 µM (inactive) | 25.8 µM (inactive) | 36.7 µM (inactive)
9 | CC1(C)Cc2c(c3ccccc3c3nc4c(nc23)c2c(c3ccccc34)OC(C)(C)C2)O1 | > 100 µM (inactive) | > 100 µM (inactive) | > 100 µM (inactive) | > 100 µM (inactive) | > 100 µM (inactive) | > 100 µM (inactive) | > 100 µM (inactive) | > 100 µM (inactive) |  | > 100 µM (inactive) | > 100 µM (inactive) | > 100 µM (inactive) | > 100 µM (inactive) | > 100 µM (inactive) | > 100 µM (inactive) | > 100 µM (inactive) |  | > 100 µM (inactive) | > 100 µM (inactive) | > 100 µM (inactive)
10 | CCSc1n/c(=C\c2ccco2)c2nncn12 | > 100 µM (inactive) |  |  | 40.7 µM (inactive) | > 100 µM (inactive) | > 100 µM (inactive) |  | > 100 µM (inactive) | > 100 µM (inactive) | > 100 µM (inactive) | > 100 µM (inactive) | > 100 µM (inactive) | > 100 µM (inactive) | > 100 µM (inactive) | > 100 µM (inactive) | > 100 µM (inactive) | > 100 µM (inactive) | > 100 µM (inactive) | > 100 µM (inactive) | > 100 µM (inactive)
11 | O=C(O)C(O)C(O)C(O)C(O)c1nc2ccccc2s1 (stereo not drawn) | 18.2 µM (inactive) | 17.9 µM (inactive) | 15.8 µM (inactive) | 18.2 µM (inactive) | 18.5 µM (inactive) | 15.3 µM (inactive) |  | 17.5 µM (inactive) | 16.9 µM (inactive) | 17.6 µM (inactive) | 19.1 µM (inactive) | 15.9 µM (inactive) | 15.6 µM (inactive) | 16.6 µM (inactive) | 3.53 µM (inactive) | 16.8 µM (inactive) |  | 25.8 µM (inactive) | 19.2 µM (inactive) | 17.7 µM (inactive)
12 | O/N=C(\C=N\O)c1ccc2c(c1)Sc1ccccc1O2 | 30.8 µM (inactive) | 26.4 µM (inactive) | 19.5 µM (inactive) | 15.6 µM (inactive) | 22.8 µM (inactive) | 18.1 µM (inactive) | 23.4 µM (inactive) | 17.7 µM (inactive) | 16.1 µM (inactive) | 20.9 µM (inactive) | 18.1 µM (inactive) | 31.4 µM (inactive) | 22.3 µM (inactive) | 15.7 µM (inactive) | 2.39 µM (inactive) | 39.8 µM (inactive) | 22.1 µM (inactive) |  |  | 19.9 µM (inactive)
13 | CCC(=O)C(c1ccccc1)c1ccccn1 (stereo not drawn) | > 100 µM (inactive) |  | > 100 µM (inactive) | > 100 µM (inactive) | > 100 µM (inactive) | > 100 µM (inactive) | > 100 µM (inactive) | 13.8 µM (inactive) | > 100 µM (inactive) | > 100 µM (inactive) | > 100 µM (inactive) | > 100 µM (inactive) | > 100 µM (inactive) | > 100 µM (inactive) | > 100 µM (inactive) | > 100 µM (inactive) |  | > 100 µM (inactive) | > 100 µM (inactive) | > 100 µM (inactive)
14 | COC(=O)[C@]1(c2cc3ccccc3n2S(=O)(=O)c2ccccc2)CC2CN(C(=O)OCc3ccccc3)C1C1OC(C)(C)OC21 (stereo partly drawn) | 23.9 µM (inactive) |  | > 100 µM (inactive) | 10.2 µM (inactive) | > 100 µM (inactive) | > 100 µM (inactive) | > 100 µM (inactive) | > 100 µM (inactive) | 80.4 µM (inactive) | > 100 µM (inactive) | > 100 µM (inactive) | > 100 µM (inactive) | > 100 µM (inactive) | > 100 µM (inactive) | > 100 µM (inactive) | > 100 µM (inactive) |  | > 100 µM (inactive) | > 100 µM (inactive) | > 100 µM (inactive)
15 | Cc1nc(C)c(N2CCN(Cc3ccccc3)CC2)c(O)n1 | > 100 µM (inactive) | > 100 µM (inactive) | > 100 µM (inactive) | > 100 µM (inactive) | > 100 µM (inactive) | > 100 µM (inactive) | > 100 µM (inactive) | > 100 µM (inactive) |  | > 100 µM (inactive) | > 100 µM (inactive) | > 100 µM (inactive) | > 100 µM (inactive) | > 100 µM (inactive) | > 100 µM (inactive) | > 100 µM (inactive) | > 100 µM (inactive) | > 100 µM (inactive) |  | > 100 µM (inactive)
